The data set can be described thus: in vitro. The note with it: human, hek293t cells.
What is called viability is a read-out of living cells in per cent, often relative to untreated cells. As to `C=CC(=O)NC[C@@H]1C=C[C@H]2C[C@@H]1CO2` (racemic) [1-I03, rac-N-{[(1R,2S,5S)-6-oxabicyclo[3.2.1]oct-3-en-2-yl]methyl}prop-2-enamide], the viability at 48 h, 25 µM is 78.1%. With `C=CC(=O)N(Cc1cc2cccc(OC)c2o1)[C@@H]1C[C@H]2CC[C@@H]1O2` (racemic) [1-J13, rac-N-[(7-methoxy-1-benzofuran-2-yl)methyl]-N-[(1R,2S,4S)-7-oxabicyclo[2.2.1]heptan-2-yl]prop-2-enamide], the viability at 48 h, 25 µM was found to be 172%. With `C=CC(=O)N(C)CC(=O)N1CCC[C@H](NC(=O)C(F)(F)F)[C@@H]1C` (racemic) [2-A20, rac-N-methyl-N-{2-[(2R,3R)-2-methyl-3-(2,2,2-trifluoroacetamido)piperidin-1-yl]-2-oxoethyl}prop-2-enamide], the viability at 48 h, 25 µM was found to be 96%.

Turning to `C=CC(=O)N1CCC(C(=O)N[C@H]2CCO[C@H](c3ccccn3)C2)CC1` (racemic) [2-G15, rac-1-(prop-2-enoyl)-N-[(2R,4R)-2-(pyridin-2-yl)oxan-4-yl]piperidine-4-carboxamide], the viability at 48 h, 25 µM was determined as 66.9%. For `C=CC(=O)N[C@H]1CCCC[C@H]1c1ccnn1C` (racemic) [2-G18, rac-N-[(1R,2S)-2-(1-methyl-1H-pyrazol-5-yl)cyclohexyl]prop-2-enamide] the value was 103%; for `C=CC(=O)N1CCC(C(=O)N[C@H]2CCO[C@@H]2c2cccnc2)CC1` (racemic) [2-G20, rac-1-(prop-2-enoyl)-N-[(2R,3S)-2-(pyridin-3-yl)oxolan-3-yl]piperidine-4-carboxamide], 92.2%. As for `C=CC(=O)N1CCC(C(=O)N[C@H]2CC[C@@H](CC#N)C2)CC1` (racemic) [2-G21, rac-N-[(1R,3S)-3-(cyanomethyl)cyclopentyl]-1-(prop-2-enoyl)piperidine-4-carboxamide], the figure is 71.9%. For `C=CC(=O)N1CCC(C(=O)N[C@H]2CCCCCC[C@H]2C(=O)OC)CC1` (racemic) [2-H06, rac-methyl (1R,2S)-2-[1-(prop-2-enoyl)piperidine-4-amido]cyclooctane-1-carboxylate] the value was 94.4%. Take `C=CC(=O)N1CCC(C(=O)N[C@@H]2CC[C@H](O)C2)(c2ccccc2)CC1` (racemic) [2-H16, rac-N-[(1R,3S)-3-hydroxycyclopentyl]-4-phenyl-1-(prop-2-enoyl)piperidine-4-carboxamide]: the viability at 48 h, 25 µM is 59.9%. For `C=CC(=O)N1C[C@H](NC(C)=O)[C@@H](c2ccnn2C)C1` (racemic) [2-M16, rac-N-[(3R,4S)-4-(1-methyl-1H-pyrazol-5-yl)-1-(prop-2-enoyl)pyrrolidin-3-yl]acetamide] the value was 96%; for `C=CC(=O)Nc1ccc(C(=O)N[C@H]2COC[C@@H]2OC)cc1` (racemic) [3-C08, rac-N-[(3R,4S)-4-methoxyoxolan-3-yl]-4-(prop-2-enamido)benzamide], 85.1%; for `C=CC(=O)N(C)[C@H]1CS(=O)(=O)C[C@@H]1O` (racemic) [3-C15, rac-N-[(3R,4R)-4-hydroxy-1,1-dioxo-1lambda6-thiolan-3-yl]-N-methylprop-2-enamide], 46%.

Regarding `C=CC(=O)N1CCC(C(=O)N[C@H]2CC[C@@H]2O)(c2ccccc2)CC1` (racemic) [3-G08, rac-N-[(1R,2R)-2-hydroxycyclobutyl]-4-phenyl-1-(prop-2-enoyl)piperidine-4-carboxamide], the viability at 48 h, 25 µM worked out at 104%. For `C=CC(=O)N[C@H]1CCO[C@@H]1c1ccnn1C(C)C` (racemic) [3-K05, rac-N-[(2R,3R)-2-[1-(propan-2-yl)-1H-pyrazol-5-yl]oxolan-3-yl]prop-2-enamide] the value was 52.7%. As for `COCc1nnc([C@]23CC[C@H]2CCN3C(=O)C(C)Cl)o1` (mixture of isomers) [5-H15, rac-2-chloro-1-[(1R,5R)-1-[5-(methoxymethyl)-1,3,4-oxadiazol-2-yl]-2-azabicyclo[3.2.0]heptan-2-yl]propan-1-one], the figure is 108%.

The record behind these values is paper PMC11995724, “Antibiotic target discovery by integrated phenotypic and activity-based profiling of electrophilic fragments” (Cell chemical biology, 2025).
